Experiment: Gravimetric vapour sorption (GVS) analysis
Format: physicochemical
Conditions: sample of Example 6
Procedure: Measurements are performed on a multi-sample instrument SPS-100n (Projekt Messtechnik, Ulm, Germany), which is operated in stepping mode at 25° C. A sample of approximately 20 mg is equilibrated at 40% RH before starting a pre-defined humidity program of 40-0-95-0-95-40% RH with steps of 5% ARH and a maximum equilibration time of 24 h per step. The hygroscopic classification is done according to the European Pharmacopeia Technical Guide (1999, page 86), e.g., non-hygroscopic: increase in mass less than 0.2% mass/mass; slightly hygroscopic: increase in mass is less than 2% and equal to or greater than 0.2% mass/mass; hygroscopic: increase in mass is less than 15% and equal to or greater than 2% mass/mass. The mass change between 40% relative humidity and 80% relative humidity in the first adsorption scan is evaluated for this classification.

For `COc1noc(CCNC(=O)[C@@H]2CC(=O)N(C)[C@@H](CC(C)C)C(=O)N(C)[C@H](CC(F)(F)F)C(=O)N[C@H](Cc3ccccc3)COc3ccc4ncc(F)cc4c3C(=O)N2)n1` [form 1 of the COMPOUND, (3S,7S,10R,13R)-13-benzyl-20-fluoro-7-isobutyl-N-(2-(3-methoxy-1,2,4-oxadiazol-5-yl)ethyl)-6,9-dimethyl-1,5,8,11-tetraoxo-10-(2,2,2-trifluoroethyl)-1,2,3,4,5,6,7,8,9,10,11,12,13,14-tetradecahydro-[1]oxa[4,7,10,14]tetraazacycloheptadecino[16,17-f]quinoline-3-carboxamide], which “GVS change of the water content” value (between 0% and 95% RH, 25° C., almost linear, small hysteresis between ca. 50% and 85% RH) is on record?
Its value is 2%.

And the “GVS maximum water content” value (corresponds to approximately 1 equivalent of water)?
Its value is 2%.

Reference: patent publication US20260098045A1, “CRYSTALLINE FORM OF (3S,7S,10R,13R)-13-BENZYL-20-FLUORO-7-ISOBUTYL-N-(2-(3-METHOXY-1,2,4-OXADIAZOL-5-YL)ETHYL)-6,9-DIMETHYL-1,5,8,11-TETRAOXO-10-(2,2,2-TRIFLUOROETHYL)-1,2,3,4,5,6,7,8,9,10,11,12,13,14-TETRADECAHYDRO-[1]OXA[4,7,10,14]TETRAAZACYCLOHEPTADECINO[16,17-F]QUINOLINE-3-CARBOXAMIDE” (Idorsia Pharmaceuticals Ltd, priority 2022, published 2026)
